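Compound exposure: 48 hours, 5 concentrations, 96-well plates. GI50 = concentration required for 50% inhibition of growth.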 The source made the active and inactive calls. Cut-off read from the data, not from the text of the source: active = GI50 up to about 1.1 µM and inactive = higher.
Tests used:
Test in all cases: NCI tumour cell line growth inhibition, 48 h
786-0 = test system: 786-0
A498 = test system: A498
A549 = test system: A549
ACHN = test system: ACHN
CAKI-1 = test system: CAKI-1
CCRF-CEM = test system: CCRF-CEM
COLO 205 = test system: COLO 205
DLD-1 = test system: DLD-1
DMS-114 = test system: DMS-114
DMS-273 = test system: DMS-273
EKVX = test system: EKVX
HCC 2998 = test system: HCC 2998
HCT-116 = test system: HCT-116
HCT-15 = test system: HCT-15
HL-60 = test system: HL-60
HOP-18 = test system: HOP-18
HOP-62 = test system: HOP-62
HOP-92 = test system: HOP-92
HT-29 = test system: HT-29
IGROV-1 = test system: IGROV-1
K562 = test system: K562
KM-20L2 = test system: KM-20L2
KM12 = test system: KM12
LOX IMVI = test system: LOX IMVI
LXFL 529 = test system: LXFL 529
M14 = test system: M14
M19-MEL = test system: M19-MEL
MOLT-4 = test system: MOLT-4
Malme-3M = test system: Malme-3M
NCI-H226 = test system: NCI-H226
NCI-H23 = test system: NCI-H23
NCI-H460 = test system: NCI-H460
NCI-H522 = test system: NCI-H522
OVCAR-3 = test system: OVCAR-3
OVCAR-4 = test system: OVCAR-4
OVCAR-5 = test system: OVCAR-5
OVCAR-8 = test system: OVCAR-8
RPMI-8226 = test system: RPMI-8226
RXF 393 = test system: RXF 393
RXF 631 = test system: RXF 631
SF-268 = test system: SF-268
SF-295 = test system: SF-295
SF-539 = test system: SF-539
SK-MEL-28 = test system: SK-MEL-28
SK-MEL-2 = test system: SK-MEL-2
SK-MEL-5 = test system: SK-MEL-5
SK-OV-3 = test system: SK-OV-3
SN12C = test system: SN12C
SNB-19 = test system: SNB-19
SNB-75 = test system: SNB-75
SR = test system: SR
SW-620 = test system: SW-620
TK-10 = test system: TK-10
U-251 = test system: U-251
UACC-257 = test system: UACC-257
UACC-62 = test system: UACC-62
UO-31 = test system: UO-31
XF498 = test system: XF498
SNB-78 = test system: SNB-78

COc1cc2c(c(OC)c1OC)[C@@H]1CCCCC[C@@H]1CCC2=O
GI50 (786-0): > 71.3 µM (inactive) | GI50 (A498): > 100 µM (inactive) | GI50 (A549): > 100 µM (inactive) | GI50 (ACHN): > 100 µM (inactive) | GI50 (CAKI-1): > 100 µM (inactive) | GI50 (CCRF-CEM): 22.8 µM (inactive) | GI50 (COLO 205): > 48.6 µM (inactive) | GI50 (DLD-1): 38.4 µM (inactive) | GI50 (DMS-114): 29.4 µM (inactive) | GI50 (DMS-273): > 49.4 µM (inactive) | GI50 (EKVX): > 100 µM (inactive) | GI50 (HCC 2998): > 100 µM (inactive) | GI50 (HCT-116): 57.1 µM (inactive) | GI50 (HCT-15): > 75 µM | GI50 (HL-60): 22.9 µM (inactive) | GI50 (HOP-18): > 100 µM (inactive) | GI50 (HOP-62): > 100 µM (inactive) | GI50 (HOP-92): 82.6 µM (inactive) | GI50 (HT-29): > 71.6 µM (inactive) | GI50 (IGROV-1): > 100 µM (inactive) | GI50 (K562): 28.9 µM (inactive) | GI50 (KM-20L2): > 90.8 µM (inactive) | GI50 (KM12): 99.1 µM (inactive) | GI50 (LOX IMVI): 17.7 µM (inactive) | GI50 (LXFL 529): 58.7 µM (inactive) | GI50 (M14): > 100 µM (inactive) | GI50 (M19-MEL): > 100 µM (inactive) | GI50 (MOLT-4): 24 µM (inactive) | GI50 (Malme-3M): > 100 µM (inactive) | GI50 (NCI-H226): > 100 µM (inactive) | GI50 (NCI-H23): > 100 µM (inactive) | GI50 (NCI-H460): > 58.6 µM (inactive) | GI50 (NCI-H522): > 66.7 µM (inactive) | GI50 (OVCAR-3): 97.3 µM (inactive) | GI50 (OVCAR-4): > 91.8 µM (inactive) | GI50 (OVCAR-5): > 100 µM (inactive) | GI50 (OVCAR-8): > 100 µM (inactive) | GI50 (RPMI-8226): 31.9 µM (inactive) | GI50 (RXF 393): > 100 µM (inactive) | GI50 (RXF 631): > 100 µM (inactive) | GI50 (SF-268): 76 µM (inactive) | GI50 (SF-295): > 100 µM (inactive) | GI50 (SF-539): > 100 µM (inactive) | GI50 (SK-MEL-28): > 100 µM (inactive) | GI50 (SK-MEL-2): > 92.9 µM (inactive) | GI50 (SK-MEL-5): 57.5 µM (inactive) | GI50 (SK-OV-3): > 100 µM (inactive) | GI50 (SN12C): > 100 µM (inactive) | GI50 (SNB-19): > 100 µM (inactive) | GI50 (SNB-75): > 100 µM (inactive) | GI50 (SR): 33.3 µM (inactive) | GI50 (SW-620): > 100 µM (inactive) | GI50 (TK-10): > 100 µM (inactive) | GI50 (U-251): > 92.5 µM (inactive) | GI50 (UACC-257): 59.7 µM (inactive) | GI50 (UACC-62): 78.9 µM (inactive) | GI50 (UO-31): > 100 µM (inactive) | GI50 (XF498): > 94 µM (inactive)

CCCCNC1=C2C(=O)NN=C2CO1
GI50 (A498): > 100 µM (inactive) | GI50 (A549): > 100 µM (inactive) | GI50 (ACHN): > 100 µM (inactive) | GI50 (CAKI-1): > 100 µM (inactive) | GI50 (CCRF-CEM): > 100 µM (inactive) | GI50 (COLO 205): > 100 µM (inactive) | GI50 (DLD-1): > 100 µM (inactive) | GI50 (DMS-114): > 100 µM (inactive) | GI50 (DMS-273): > 100 µM (inactive) | GI50 (EKVX): > 100 µM (inactive) | GI50 (HCC 2998): > 100 µM (inactive) | GI50 (HCT-116): > 100 µM (inactive) | GI50 (HCT-15): > 100 µM | GI50 (HL-60): > 100 µM (inactive) | GI50 (HOP-62): > 100 µM (inactive) | GI50 (HOP-92): > 100 µM (inactive) | GI50 (HT-29): > 100 µM (inactive) | GI50 (IGROV-1): > 100 µM (inactive) | GI50 (K562): > 100 µM (inactive) | GI50 (KM-20L2): > 100 µM (inactive) | GI50 (KM12): > 100 µM (inactive) | GI50 (LOX IMVI): > 100 µM (inactive) | GI50 (LXFL 529): 39.8 µM (inactive) | GI50 (M14): > 100 µM (inactive) | GI50 (M19-MEL): > 100 µM (inactive) | GI50 (MOLT-4): > 100 µM (inactive) | GI50 (NCI-H226): > 100 µM (inactive) | GI50 (NCI-H23): > 100 µM (inactive) | GI50 (NCI-H460): > 100 µM (inactive) | GI50 (NCI-H522): > 100 µM (inactive) | GI50 (OVCAR-4): > 100 µM (inactive) | GI50 (OVCAR-5): > 100 µM (inactive) | GI50 (OVCAR-8): > 100 µM (inactive) | GI50 (RPMI-8226): > 100 µM (inactive) | GI50 (RXF 393): > 100 µM (inactive) | GI50 (RXF 631): > 100 µM (inactive) | GI50 (SF-268): > 100 µM (inactive) | GI50 (SF-295): > 100 µM (inactive) | GI50 (SF-539): > 100 µM (inactive) | GI50 (SK-MEL-28): > 100 µM (inactive) | GI50 (SK-MEL-2): > 100 µM (inactive) | GI50 (SK-MEL-5): > 100 µM (inactive) | GI50 (SK-OV-3): > 100 µM (inactive) | GI50 (SN12C): > 100 µM (inactive) | GI50 (SNB-19): > 100 µM (inactive) | GI50 (SNB-75): > 100 µM (inactive) | GI50 (SNB-78): > 100 µM (inactive) | GI50 (SR): > 100 µM (inactive) | GI50 (SW-620): > 100 µM (inactive) | GI50 (TK-10): > 100 µM (inactive) | GI50 (U-251): > 100 µM (inactive) | GI50 (UACC-257): > 100 µM (inactive) | GI50 (UACC-62): > 100 µM (inactive) | GI50 (UO-31): > 100 µM (inactive) | GI50 (XF498): > 100 µM (inactive)

Cc1ccc2nc(NC(=O)/C(=N\NC(=S)NN)C3C(=O)NC(=S)NC3=O)sc2c1
GI50 (786-0): > 100 µM (inactive) | GI50 (A498): > 100 µM (inactive) | GI50 (A549): > 100 µM (inactive) | GI50 (ACHN): > 100 µM (inactive) | GI50 (CAKI-1): > 100 µM (inactive) | GI50 (CCRF-CEM): > 100 µM (inactive) | GI50 (COLO 205): > 100 µM (inactive) | GI50 (DLD-1): > 100 µM (inactive) | GI50 (DMS-273): > 100 µM (inactive) | GI50 (EKVX): > 100 µM (inactive) | GI50 (HCC 2998): > 100 µM (inactive) | GI50 (HCT-116): > 100 µM (inactive) | GI50 (HCT-15): > 100 µM | GI50 (HL-60): > 100 µM (inactive) | GI50 (HOP-18): 80 µM (inactive) | GI50 (HOP-62): > 100 µM (inactive) | GI50 (HOP-92): > 100 µM (inactive) | GI50 (HT-29): > 100 µM (inactive) | GI50 (IGROV-1): > 100 µM (inactive) | GI50 (K562): > 100 µM (inactive) | GI50 (KM-20L2): > 100 µM (inactive) | GI50 (KM12): > 100 µM (inactive) | GI50 (LOX IMVI): > 100 µM (inactive) | GI50 (LXFL 529): > 100 µM (inactive) | GI50 (M14): > 100 µM (inactive) | GI50 (MOLT-4): > 100 µM (inactive) | GI50 (Malme-3M): > 100 µM (inactive) | GI50 (NCI-H226): > 100 µM (inactive) | GI50 (NCI-H23): > 100 µM (inactive) | GI50 (NCI-H460): > 100 µM (inactive) | GI50 (NCI-H522): > 100 µM (inactive) | GI50 (OVCAR-4): > 100 µM (inactive) | GI50 (OVCAR-5): > 100 µM (inactive) | GI50 (OVCAR-8): > 100 µM (inactive) | GI50 (RPMI-8226): > 100 µM (inactive) | GI50 (RXF 393): > 100 µM (inactive) | GI50 (RXF 631): > 100 µM (inactive) | GI50 (SF-268): > 100 µM (inactive) | GI50 (SF-295): > 100 µM (inactive) | GI50 (SF-539): > 100 µM (inactive) | GI50 (SK-MEL-28): > 100 µM (inactive) | GI50 (SK-MEL-2): > 100 µM (inactive) | GI50 (SK-MEL-5): > 100 µM (inactive) | GI50 (SK-OV-3): > 100 µM (inactive) | GI50 (SN12C): > 100 µM (inactive) | GI50 (SNB-19): > 100 µM (inactive) | GI50 (SNB-75): > 100 µM (inactive) | GI50 (SNB-78): > 100 µM (inactive) | GI50 (SR): > 100 µM (inactive) | GI50 (SW-620): > 100 µM (inactive) | GI50 (TK-10): > 100 µM (inactive) | GI50 (U-251): > 100 µM (inactive) | GI50 (UACC-257): > 100 µM (inactive) | GI50 (UACC-62): > 100 µM (inactive) | GI50 (UO-31): > 100 µM (inactive) | GI50 (XF498): > 100 µM (inactive)

Source: ChEMBL document CHEMBL1201862, “PubChem BioAssay data set” (2004)
